Where two headings read alike, the source gives them in different places.
Tests used:
[1] = test system: human mammary carcinoma MX-1 xenografts; conditions: nude, mouse, in vivo
[2] = test system: CCRF-CEM/VBL100 vinblastine-resistant cells; experiment: In vitro cytotoxicity against vinblastine-resistant CCRF-CEM subline; type: cell-based, human
Protocol: The cytotoxicity IC50 of each compound was measured with the XTT assay using the 2,3-bis(2-methoxy-4-nitro-5-sulfophenyl)-5-[(phenylamino)carbonyl]-2H-tetrazolium hydroxide (XTT) microculture method as described in Scudiero et al., Cancer Res., 48:4827 (1988), the contents of which are hereby incorporated by reference in their entirety. The CCK-8 assay is a cell counting kit-8 (CCK-8) tetrazolium assay using a 96-well microplate (Dojindo Molecular Technologies, Inc., Rockville, Md.) (M. Ishiyama et al., Biol. Pharm. Bull. 19: 1518, 1996). Absorbance was measured by Powerwave a XS microplate spectrophotometer. This method described is considered a general method in vitro cytotoxicity studies.
The data in Tables 2X, 3A-E, 4, 5, and 6 were obtained using the cell counting kit-8 (CCK-8) tetrazolium assay in a 96-well microplate. Five to seven concentrations of each compound in triplicate were used, and the IC50 values were determined by CompuSyn software automation (Chou T C. and Martin N. ComboSyn, Inc., 2006) based on the median-effect equation and plot (Chou T C. J. Theor. Biol. 59:235-276, 1976; Chou T C. Pharmacol. Rev. 58: 621-681, 2006). […] The r value defines the correlation coefficient of the median-effect plot which signifies the conformity to the mass-action law principle (Chou T C. J. Theor. Biol. 59:235-276, 1976; Chou T C. Pharmacol. Rev. 58:621-681, 2006). These parameters were determined by CompuSyn simulation (available at http://www.combosyn.com).
CCRF-CEM human T-cell acute lymphoblastic leukemia cells and the corresponding vinblastine-resistant cells (CCRF-CEM/VBL100) were cultured at an initial density of 5×10^4 cells per milliliter. The cultured cells were maintained in a 5% CO2-humidified atmosphere at 37° C. in RPMI medium 1640 (GIBCO/BRL) containing penicillin (100 units/mL), streptomycin (100 μg/mL, GIBCO/BRL), and 10% heat-inactivated fetal bovine serum. The cytotoxicity of each Compound of the invention was measured using the 2,3-bis(2-methoxy-4-nitro-5-sulfophenyl)-5-[(phenylamino)carbonyl]-2H-tetrazolium hydroxide (XTT) microculture method as described in Scudiero et al., Cancer Res., 48:4827 (1988), the contents of which are hereby incorporated by reference in their entirety.
Absorbance was measured by Powerwave XS microplate spectrophotometer.

[3] = test system: human PBMC lymphocytes; experiment: DNA synthesis ([3H]thymidine incorporation) in human PBMC lymphocytes (FIG. 8); type: cell-based
Excerpt: FIG. 8 show the effects of PHA and different concentrations of compounds of the invention, at different time points, on the proliferation of a culture of human lymphocytes as measured by DNA synthesis through incorporation of radiolabeled thymidine into the DNA.
The main principle and method of experiments for human PBMC lymphocytes and for mouse splenocytes stimulations were the same, since both measure immunological cell stimulation by PHA, PXT and compounds of the invention. Both the lymphocyte and the splenocyte assays measure the ^3H-dThd tracer as an indication of DNA synthesis. For PBMC lymphocytes (FIGS. 9A-9G), the experimental methods are those for splenocytes disclosed in Example 24 (FIGS. 11A-11F; FIGS. 12A-12E), except 0.282×10^6 PBMC lymphocyte cells in 198.5 μl was used, and the experimental incubation time was extended to 120 hr.
Briefly, to generate the data in Tables 8A and 8B, the compounds were tested in a [^3H] thymidine uptake experiment using PBMC human lymphocytes obtained from the New York Blood Center. PBMC human lymphocytes were exposed to compounds at 0.03, 0.1, 0.3, and 1.0 μM for 24 hours, and examined for increased [^3H] thymidine uptake. Human lymphocytes were also exposed to compounds for an extended time, e.g., 48 hrs and 72 hrs, instead of 24 hrs, in the [^3H] thymidine uptake assay, and examined to determine the extent of increased [^3H] thymidine uptake to determine if extended exposure will further increase the immune-enhancing effects of the compounds. Increased [^3H] thymidine uptake is interpreted as increased DNA synthesis, which indicates cell growth and division. In the case of immune system cells, this should result in an immune-enhancing effect. The compounds are compared by their IC50 values and/or their effect on [^3H] thymidine uptake at a given concentration and/or time point.

[4] = test system: CCRF-CEM human T-cell acute lymphoblastic leukemia cells; experiment: In vitro cytotoxicity against CCRF-CEM (XTT / CCK-8 tetrazolium assay, 72 hr)
[5] = test system: human lymphoblastic leukemic T-cell growth; experiment: Cytotoxic activity relative to stability during storage at −20° C. in DMSO (Table 10); type: cell-based; conditions: Homo sapiens, CCRF-CEM, 72 h, Table 10, XTT, 72 hr
Excerpt: Without wishing to be bound by theory, the oxidized versions may be active metabolites. This theory provides an explanation of the delayed onset of therapeutic effects seen in the figures herein. The oxidized compounds may be active agents that are formed slowly upon metabolic oxidation. […] The active metabolites may explain the biphasic pharmacological properties of panaxytriol or Compound D that have been observed (FIGS. 9B, C, D; FIGS. 11D, E, F, and FIGS. 12D, E). […] Induction of the phase 2 enzymes may slow oxidation of the compounds (Ng et al., Tetrahedron Letters. 49: 7178-7179 (2008)).

[6] = test system: MX-1 mammary carcinoma; experiment: Cytotoxicity against solid tumor cells, CCK-8, 72 hrs (Table 4); type: cell-based; conditions: Homo sapiens
Protocol: (§1) Compounds are also evaluated against A-549 lung carcinoma and SK-OV-3 ovarian adenocarcinoma cell lines using the methodology as for Table 3. The potency order for the compounds may vary in different tumor cell lines. […] Absorbance was measured using a Powerwave XS microplate spectrophotometer.

[7] = test system: HCT-116 colon carcinoma; experiment: as above; type: cell-based; conditions: Homo sapiens
Protocol: as §1

[8] = test system: SK-OV-3 ovarian adenocarcinoma; experiment: Cytotoxicity against solid tumor cells (Table 4); type: cell-based; conditions: Homo sapiens, CCK-8, 72 hrs
Protocol: as §1

[9] = test system: A-549 lung carcinoma; experiment: Cytotoxicity against solid tumor cells (Table 4); type: cell-based; conditions: Homo sapiens, A549, CCK-8, 72 hrs
Protocol: as §1

[10] = test system: human mammary carcinoma MX-1 xenograft; experiment: Therapeutic effect and body weight in nude mice bearing MX-1 xenograft, single agents
Protocol: FIGS. 1A and 1B show the therapeutic, anti-cancer effects of various dosage regimens of panaxytriol and Compound (A), respectively, given by i.v. injection in nude mice bearing human mammary carcinoma MX-1 xenograft tumors, which is an in vivo model for breast cancer. […] The compounds were administered starting on day 8.
An in vivo assay uses male athymic nude mice bearing the nu/nu gene (6 weeks of age or older, weighing between 20 and 22 g, obtainable from NCl, Frederick, Md.) into which one or more human tumor xenografts are been implanted.
Nude mice having human mammary carcinoma xenograft MX-1 were treated with panaxytriol or Compound (A) at various dosages through the slow i.v. infusion protocol by Chou et al. (Chou, T. C., et al, Proc. Natl. Acad. Sci. U.S.A. 95: 15798 (1998), the contents of which are herein incorporated by reference in their entirety).

Compound	mice died [1]	IC50 ([2]; Homo sapiens, CCRF-CEM, 72 h, Table 3D, CCK-8, 72-hr incubation, read-out: IC50 CCRF-CEM/Vinblastine) [µM]	cross-resistance to TAXOL or vinblastine ([2]; TAXOL- or vinblastine-resistant (MDR) sublines)	fold resistance in brackets (IC50 CCRF-CEM/VBL vs CCRF-CEM) ([2]; Table 3) [x]	fold resistance (IC50 CCRF-CEM/VBL vs parent CCRF-CEM) ([2]; Table 3A) [fold]	fold of cross-resistance (CCRF-CEM/Vinblastine vs parent cell line) ([2]; Table 3D, given as x or -fold) [fold]	time of maximal stimulation of lymphocyte [3] [h]	anti-cancer activity in the in vitro cytotoxicity assay [4]	IC50 ([4]; Homo sapiens, CCRF-CEM, 72 h, read-out: IC50 CCRF-CEM, Table 3D, CCK-8, 72-hr incubation) [µM]	IC50 ([5]; Aug. 22, 2003 (Stored), same solution kept at −20° C. in DMSO, read-out: IC50 in μM CCRF-CEM) [µM]	IC50 ([5]; Aug. 22, 2003 (Stored), same solution kept at −20° C. in DMSO, read-out: IC50 in μM CCRF-CEM/VBL) [µM]	IC50 ([5]; Jul. 25, 2003 (Fresh), read-out: IC50 in μM CCRF-CEM) [µM]	IC50 ([5]; Jul. 25, 2003 (Fresh), read-out: IC50 in μM CCRF-CEM/VBL) [µM]	IC50 [6] [µM]	IC50 [7] [µM]	IC50 [8] [µM]	IC50 [9] [µM]	tumor suppression compared to the control tumor size ([10]; Day 24, i.v. injection Q2D, escalating doses from day 8, FIGS. 1A, 1B) [%]	antitumor effects against MX-1 xenografts ([10]; mouse, in vivo)	level inhibiting tumor growth (as low as) ([10]; mouse, in vivo) [mg/kg]
O=c1[nH]cc(F)c(=O)[nH]1 [Compound 5FU, 5-fluoro-uracil]	5/8																			
C=C[C@@H](O)C#CC#CC[C@H]1OC(C)(C)O[C@@H]1CCCCCCC [Compound (A)]		1.12	do not appear to be cross-resistant to TAXOL or vinblastine	1.22	1.4	1.4	120	active against cancer	0.803	2.12	2.37	1.21 ± 0.03	1.22 ± 0.15	1.92	1.28	3	3.95	47.7	antitumor effects	10

From patent US8859615B2, “Compounds, compositions and methods for reducing toxicity and treating or preventing diseases” (priority 2008, dated 2014)
